According to publication PMC10304291, “THC-Reduced Cannabis sativa L.—How Does the Solvent Determine the Bioavailability of Cannabinoids Given Orally?” (Nutrients, 2023):
Where two headings read alike, the source gives them in different places.

How the values were obtained:
[1] = mice; oral CBD 120 mg/kg in Cremophor; cited from earlier work
[2] = rats; oral CBD 120 mg/kg in Cremophor; cited from earlier work
[3] = 12 healthy volunteers; chocolate cookies with 0.57 mg/kg CBD + 0.28 mg/kg THC; after 1.5–3 h; cited from earlier work
[4] = 24 volunteers, 0.078 mg/kg CBD + […] THC, cited from earlier work
[5] = cited from earlier work
[6] = Whole-blood pharmacokinetics of CBD and THC after single oral dose of Cannabis sativa extract; conditions: for CBD levels in whole blood: range of levels; for concentration at 0.5 h / concentration at 1 h / concentration at 2 h / concentration at 4 h / concentration at 6 h / concentration at 24 h / AUC(0-t) / Cmax / MRT / Tmax / CL / Vd: whole blood; for concentration at 0.5 h / concentration at 1 h / concentration at 2 h / concentration at 4 h / concentration at 6 h / concentration at 24 h: oral; for AUC(0-t): AUC0–24, whole blood
[7] = Brain pharmacokinetics of CBD and THC after single oral dose of Cannabis sativa extract; conditions: for mean concentration over time: Table 7; for AUC(0-t): AUC0–24, brain
[8] = 1 h after gelatin capsules with extract
[9] = male, Wistar, rat, 30 mg/kg, Mean Concentration ± SD, blood, Rapae oleum, single oral dose of extract 30 mg/kg
[10] = male, Wistar, rat, 30 mg/kg, Mean Concentration, blood, Cremophor, single oral dose of extract 30 mg/kg
[11] = male, Wistar, rat, 30 mg/kg, mean concentration over time, Blood/Cremophor, single oral dose of extract 30 mg/kg, Table 7
[12] = male, Wistar, rat, 30 mg/kg, mean concentration over time, Blood/Rapae Oleum, single oral dose of extract 30 mg/kg, Table 7
[13] = male, Wistar, rat, po, 30 mg/kg, Cremophor, single oral dose of extract 30 mg/kg
[14] = male, Wistar, rat, po, 30 mg/kg, Rapae oleum, single oral dose of extract 30 mg/kg
[15] = Cremophor, single oral dose of extract 30 mg/kg
[16] = Rapae oleum, single oral dose of extract 30 mg/kg
[17] = male, Wistar, rat, brain, po, 30 mg/kg, Cremophor, single oral dose of extract 30 mg/kg
[18] = male, Wistar, rat, brain, po, 30 mg/kg, Rapae oleum, single oral dose of extract 30 mg/kg

What does the source list for `C=C(C)[C@@H]1CCC(C)=C[C@H]1c1c(O)cc(CCCCC)cc1O` [CBD, cannabidiol]?
brain peak CBD concentration [1]: 1.3 µg/g; peak whole-blood concentration [1]: ~2 µg/mL; brain peak CBD concentration [2]: 8.6 µg/g; peak whole-blood concentration [2]: ~2 µg/mL; whole-blood concentration [3]: about 5 ng/mL; levels in whole blood (average) [4, 8]: 0.93 ng/mL; levels in whole blood (range) [4, 8]: 0.3 to 2.6 ng/mL; time detectable after administration ([4]; gelatin capsules with extract): 3 to 4 h; peak concentration in the blood ([5]; oral CBD 120 mg/kg in Cremophor, at 2 h): 2 µg/mL; peak concentration in the blood ([5]; oral CBD 120 mg/kg in Solutol, at 6 h): 3.2 µg/mL; CBD levels in whole blood ([6]; Cremophor): 1.43 to 231.43 ng/mL; concentration at 0.5 h [6, 9]: 26.9 ± 21.5 ng/g; concentration at 1 h [6, 9]: 107 ± 51 ng/g; concentration at 2 h [6, 9]: 334 ± 139 ng/g; concentration at 4 h [6, 9]: 154 ± 146 ng/g; concentration at 6 h [6, 9]: 37.6 ± 11.3 ng/g; concentration at 24 h [6, 9]: 2.76 ± 2.12 ng/g; concentration at 0.5 h [6, 10]: 120 ± 93.5 ng/g; concentration at 1 h [6, 10]: 109 ± 35.4 ng/g; concentration at 2 h [6, 10]: 46.5 ± 15.7 ng/g; concentration at 4 h [6, 10]: 35.1 ± 4.71 ng/g; concentration at 6 h [6, 10]: 31.4 ± 9.28 ng/g; concentration at 24 h [6, 10]: 12.3 ± 18 ng/g; concentration at 0.5 h [6, 11]: 120 ng/mL; concentration at 1 h [6, 11]: 109 ng/mL; concentration at 2 h [6, 11]: 46.5 ng/mL; concentration at 4 h [6, 11]: 35.1 ng/mL; concentration at 6 h [6, 11]: 31.4 ng/mL; concentration at 24 h [6, 11]: 12.3 ng/mL; concentration at 0.5 h [6, 12]: 26.9 ng/mL; concentration at 1 h [6, 12]: 107 ng/mL; concentration at 2 h [6, 12]: 334 ng/mL; concentration at 4 h [6, 12]: 154 ng/mL; concentration at 6 h [6, 12]: 37.6 ng/mL; concentration at 24 h [6, 12]: 2.76 ng/mL; AUC(0-t) [6, 13]: 988 ng·h/mL; AUC(0-t) [6, 14]: 1290 ng·h/mL; Cmax [6, 13]: 120 ng/mL; Cmax [6, 14]: 334 ng/mL; MRT [6, 13]: 12 h; MRT [6, 14]: 4.03 h; Tmax ([6]; male, Wistar, rat, po, 30 mg/kg, Tmax, Rapae oleum, single oral dose of extract 30 mg/kg): 2 h; CBD levels in whole blood ([6]; oil (Rapae oleum)): 1.06 to 588.03 ng/mL; time concentrations were detectable after administration ([6]; single oral dose of extract 30 mg/kg): up to 24 h; CL [6, 15]: 7.75 L/h; Tmax [6, 15]: 0.5 h; Vd [6, 15]: 69.66 L; CL [6, 16]: 5.85 L/h; Vd [6, 16]: 28.29 L; mean concentration over time ([7]; Brain/Cremophor, 0.5 h, single oral dose of extract 30 mg/kg): 274.994; mean concentration over time ([7]; Brain/Cremophor, 1 h, single oral dose of extract 30 mg/kg): 213.491; mean concentration over time ([7]; Brain/Cremophor, 2 h, single oral dose of extract 30 mg/kg): 81.1135; mean concentration over time ([7]; Brain/Cremophor, 4 h, single oral dose of extract 30 mg/kg): 52.1185; mean concentration over time ([7]; Brain/Cremophor, 6 h, single oral dose of extract 30 mg/kg): 57.7145; mean concentration over time ([7]; Brain/Cremophor, 24 h, single oral dose of extract 30 mg/kg): 3.604; mean concentration over time ([7]; Brain/Rapae oleum, 0.5 h, single oral dose of extract 30 mg/kg): 23.327; mean concentration over time ([7]; Brain/Rapae oleum, 1 h, single oral dose of extract 30 mg/kg): 65.391; mean concentration over time ([7]; Brain/Rapae oleum, 2 h, single oral dose of extract 30 mg/kg): 301.388; mean concentration over time ([7]; Brain/Rapae oleum, 4 h, single oral dose of extract 30 mg/kg): 263.466; mean concentration over time ([7]; Brain/Rapae oleum, 6 h, single oral dose of extract 30 mg/kg): 59.650; mean concentration over time ([7]; Brain/Rapae oleum, 24 h, single oral dose of extract 30 mg/kg): 9.797; Kp ([7]; male, Wistar, rat, brain / whole blood, po, 30 mg/kg, AUCbrain:AUC whole blood (AUC0–24 ratio), Cremophor, single oral dose of extract 30 mg/kg): 0.95; Kp ([7]; male, Wistar, rat, brain / whole blood, po, 30 mg/kg, AUCbrain:AUC whole blood (AUC0–24 ratio), Rapae oleum, single oral dose of extract 30 mg/kg): 1.54; concentration at 0.5 h ([7]; male, Wistar, rat, brain, oral, 30 mg/kg, Mean Concentration, Cremophor, 0.5 h, single oral dose of extract 30 mg/kg): 275 ± 104 ng/g; concentration at 1 h ([7]; male, Wistar, rat, brain, oral, 30 mg/kg, Mean Concentration, Cremophor, 1 h, single oral dose of extract 30 mg/kg): 213 ± 66.1 ng/g; concentration at 2 h ([7]; male, Wistar, rat, brain, oral, 30 mg/kg, Mean Concentration, Cremophor, 2 h, single oral dose of extract 30 mg/kg): 81.1 ± 23.4 ng/g; concentration at 4 h ([7]; male, Wistar, rat, brain, oral, 30 mg/kg, Mean Concentration, Cremophor, 4 h, single oral dose of extract 30 mg/kg): 52.1 ± 12.2 ng/g; concentration at 6 h ([7]; male, Wistar, rat, brain, oral, 30 mg/kg, Mean Concentration, Cremophor, 6 h, single oral dose of extract 30 mg/kg): 57.7 ± 25.9 ng/g; concentration at 24 h ([7]; male, Wistar, rat, brain, oral, 30 mg/kg, Mean Concentration, Cremophor, 24 h, single oral dose of extract 30 mg/kg): 3.6 ± 0.493 ng/g; Tmax ([7]; male, Wistar, rat, brain, po, 30 mg/kg): 2 h; AUC(0-t) [7, 17]: 943 ng·h/mL; AUC(0-t) [7, 18]: 1990 ng·h/mL; Cmax [7, 17]: 275 ng/g; Cmax [7, 18]: 301 ng/g; MRT [7, 17]: 6.19 h; MRT [7, 18]: 7.76 h; Kp ([7]; male, Wistar, rat, brain/whole blood, oral, 30 mg/kg, brain/whole-blood ratio, Cremophor, present study): 2.29
